Laboratory results: patent publication US8394803B2, “Gyrase inhibitors and uses thereof” (Vertex Pharmaceuticals Incorporated, priority 2005, dated 2013)
Values after ≈ are worked out from the molar mass of the structure shown. Like-named read-outs stand apart in the source and are kept apart here.

Columns and labels:
[1] = biological target: E. coli Gyrase (Escherichia coli, UniProt P0AES6); assay: DNA Gyrase ATPase assay (E. coli Gyrase Ki); assay type: biochemical
Protocol: The ATP hydrolysis activity of DNA gyrase was measured by coupling the production of ADP through pyruvate kinase/lactate dehydrogenase to the oxidation of NADH. This method has been described previously (Tamura and Gellert, 1990, J. Biol. Chem., 265, 21342).
ATPase assays were carried out at 30° C. in buffered solutions containing 100 mM TRIS pH 7.6, 1.5 mM MgCl2, 150 mM KCl. The coupling system contains (final concentrations) 2.5 mM phosphoenol pyruvate, 200 μM nicotinamide adenine dinucleotide (NADH), 1 mM DTT, 30 ug/ml pyruvate kinase, and 10 ug/ml lactate dehydrogenase. 40 nanomolar enzyme and a DMSO solution of the inhibitor to a final concentration of 4% was added and the reaction mixture was allowed to incubate for 10 minutes at 30° C. The reaction was then started by the addition of ATP to a final concentration of 0.9 mM and the rate of NADH disappearance at 340 nanometers was measured over the course of 10 minutes. The Ki values were determined from rate versus concentration profiles.
The compound numbers correspond to the compound numbers in Table 2. Compounds having an activity designated as “A” provided a Ki inhibition value equal to or above 0.100 micromolar. Compounds having an activity designated as “B” provided a Ki inhibition value between 0.050 micromolar and 0.100 micromolar. […] The term “ND” means no data.

[2] = biological target: S. aureus TopoIV (Staphylococcus aureus, UniProt P0C1S7); assay: DNA Topo IV ATPase assay (S. aureus TopoIV Ki); assay type: biochemical; details: 30° C., read-out: S. aureus Topo IV Ki Inhibition Ranges (Activity)
Protocol: DNA Topo IV ATPase Assay:
The conversion of ATP to ADP by TopoIV enzyme was coupled to the conversion of NADH to NAD+ and measured by the change in absorbance at 340 nm. Topo4 was incubated with inhibitor (4% DMSO final) in buffer for 10 minutes at 30° C. Reaction was initiated with ATP and rates were monitored continuously for 20 minutes at 30° C. on a Molecular Devices SpectraMAX plate reader. The inhibition constant, Ki, was determined from plots of rate vs. [Inhibitor] fit to the Morrison Equation for tight binding inhibitors.
S. aureus TopoIV Buffer: 100 mM Tris 7.5, 2 mM MgCl2, 200 mM K●Glutamate, 2.5 mM phosphoenol pyruvate, 0.2 mM NADH, 1 mM DTT, 4.25 μg/mL linearized DNA, 50 μg/mL BSA, 30 μg/mL pyruvate kinase, and 10 μg/mL lactate dehyrodgenase (LDH).
The compound numbers correspond to the compound numbers in Table 2. Compounds having an activity designated as “A” provided a Ki inhibition value equal to or above 0.500 micromolar. […] The term “ND” means no data.

[3] = system: Staphylococcus aureus; assay: Susceptibility testing in liquid media (MIC), S. aureus; assay type: cell-based; details: 35° C. overnight, read-out: S. aureus MIC range
Protocol: (§1) Compounds of this invention were also tested for antimicrobial activity by susceptibility testing in liquid media. Such assays were performed within the guidelines of the latest NCCLS document governing such practices: “M7-A5 Methods for dilution Antimicrobial Susceptibility Tests for Bacteria that Grow Aerobically; Approved Standard—Fifth Edition (2000)”. Other publications such as “Antibiotics in Laboratory Medicine” (Edited by V. Lorian, Publishers Williams and Wilkins, 1996) provide essential practical techniques in laboratory antibiotic testing. Essentially, several discrete bacterial colonies of Staphylococcus aureus, Streptococcus pneumoniae, Haemophilus influenzae, or Enterococcus faecalis (3 to 7) from a freshly streaked plate were transferred to an appropriate rich broth medium such as MHB, and supplemented where appropriate for the more fastidious organisms. This was grown overnight to high density followed by a 1 or 2-thousand-fold dilution to give an inoculation density of between 5×10^5 and 5×10^6 CFU per mL. Alternatively, the freshly picked colonies can be incubated at 37° C. for about 4 to 8 hours until the culture equals or exceeds a turbidity of a 0.5 McFarland standard (approximately 1.5×10^8 cells per mL) and diluted to give the same CFU per mL as above. In a more convenient method, the inoculum was prepared using a commercially available mechanical device (the BBL PROMPT System) that involves touching five colonies directly with a wand, containing crosshatch grooves at its bottom, followed by suspension of the bacteria in an appropriate volume of saline. Dilution to the appropriate inoculum cell density was made from this cell suspension. The broth used for testing consists of MHB supplemented with 50 mg per L of Ca^2+ and 25 mg per L of Mg^2+. Standard dilution panels of control antibiotics were made and stored as in the NCCLS standard M7-A5, the dilution range typically being in the 128 μg per mL to […] (by 2-fold serial dilution). The test compounds were dissolved and diluted fresh for experimentation on the same day; the same or similar ranges of concentration as above being used. The test compounds and controls were dispensed into a multiwell plate and test bacteria added such that the final inoculation was approximately 5×10^4 CFU per well and the final volume was 100 μL. The plates were incubated at 35° C. overnight (16 to 20 hours) and checked by eye for turbidity or quantitated with a multiwell plate reader. […] Such determinations were also compared to the appropriate tables contained in the above two publications to ensure that the range of antibacterial activity is within the acceptable range for this standardized assay.
(§2) The compound numbers correspond to the compound numbers in Table 2.

[4] = system: Streptococcus pneumoniae; assay: Susceptibility testing in liquid media (MIC), S. pneumoniae; assay type: cell-based; details: 35° C. overnight, read-out: S. pneumoniae MIC range
Protocol: as §1, §2

[5] = system: Haemophilus influenzae; assay: Susceptibility testing in liquid media (MIC), H. influenzae; assay type: cell-based; details: 35° C. overnight, read-out: H. influenzae MIC range
Protocol: as §1, §2

[6] = system: Enterococcus faecalis; assay: Susceptibility testing in liquid media (MIC), E. faecalis; assay type: cell-based; details: 35° C. overnight, read-out: E. faecalis MIC range
Protocol: as §1, §2

[7] = ATPase assay, 30° C., 0.9 mM ATP, read-out: E. coli Gyrase Ki Inhibition Ranges (Activity)

S. aureus TopoIV, sequence (P0C1S7 whole entry): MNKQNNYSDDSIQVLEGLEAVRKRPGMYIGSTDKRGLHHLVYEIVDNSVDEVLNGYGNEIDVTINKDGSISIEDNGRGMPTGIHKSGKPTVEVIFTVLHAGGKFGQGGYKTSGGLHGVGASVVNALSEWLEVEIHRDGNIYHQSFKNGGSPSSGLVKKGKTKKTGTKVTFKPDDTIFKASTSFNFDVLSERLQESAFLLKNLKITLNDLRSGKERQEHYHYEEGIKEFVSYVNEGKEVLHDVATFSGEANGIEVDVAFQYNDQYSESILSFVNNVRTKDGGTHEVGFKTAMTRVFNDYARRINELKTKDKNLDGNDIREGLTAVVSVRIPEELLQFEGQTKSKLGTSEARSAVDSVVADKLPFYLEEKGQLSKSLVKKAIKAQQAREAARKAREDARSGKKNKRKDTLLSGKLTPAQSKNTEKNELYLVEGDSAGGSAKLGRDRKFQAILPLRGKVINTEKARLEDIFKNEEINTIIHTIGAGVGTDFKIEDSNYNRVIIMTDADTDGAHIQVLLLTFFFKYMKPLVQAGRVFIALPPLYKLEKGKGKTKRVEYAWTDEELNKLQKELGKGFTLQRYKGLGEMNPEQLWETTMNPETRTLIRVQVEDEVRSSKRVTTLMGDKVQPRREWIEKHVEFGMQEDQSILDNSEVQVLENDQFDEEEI
S. aureus TopoIV, sequence (P0C1U9 whole entry partner): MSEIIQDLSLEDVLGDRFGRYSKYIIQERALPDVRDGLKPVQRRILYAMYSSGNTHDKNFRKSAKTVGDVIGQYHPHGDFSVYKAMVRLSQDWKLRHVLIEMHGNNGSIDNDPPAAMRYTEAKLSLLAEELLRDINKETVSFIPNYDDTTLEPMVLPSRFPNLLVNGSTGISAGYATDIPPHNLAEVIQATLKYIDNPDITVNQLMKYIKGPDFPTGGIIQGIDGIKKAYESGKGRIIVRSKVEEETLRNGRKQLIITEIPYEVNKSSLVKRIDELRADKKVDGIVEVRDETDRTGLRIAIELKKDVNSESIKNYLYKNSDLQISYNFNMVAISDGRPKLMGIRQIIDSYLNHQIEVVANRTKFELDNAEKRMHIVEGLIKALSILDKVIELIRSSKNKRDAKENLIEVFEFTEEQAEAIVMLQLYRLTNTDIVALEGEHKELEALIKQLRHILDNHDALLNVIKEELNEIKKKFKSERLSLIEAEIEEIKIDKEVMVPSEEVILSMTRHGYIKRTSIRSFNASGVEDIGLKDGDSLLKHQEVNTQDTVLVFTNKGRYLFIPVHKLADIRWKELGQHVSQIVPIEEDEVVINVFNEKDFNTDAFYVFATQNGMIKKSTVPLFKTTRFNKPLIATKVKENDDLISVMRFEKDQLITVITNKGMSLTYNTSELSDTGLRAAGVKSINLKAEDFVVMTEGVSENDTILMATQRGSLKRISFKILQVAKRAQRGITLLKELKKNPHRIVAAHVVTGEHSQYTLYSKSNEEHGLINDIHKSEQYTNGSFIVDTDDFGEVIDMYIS

CCNC(=O)Nc1nc2cc(C#N)c(F)c(-n3cccn3)c2[nH]1 [Compound I-16]
Ki [1]: < 0.05 µM | Ki [2]: ≥ 0.5 µM | MIC [3]: > 7 µg/mL | MIC [4]: 1 to 7 µg/mL (≈ 3.19 to 22.3 µM) | MIC [5]: > 7 µg/mL | MIC [6]: > 7 µg/mL

CCNC(=O)Nc1nc2cc(C(C)CC(=O)N(C)C)cc(-c3ncccc3F)c2[nH]1 (centres unmarked) [Compound I-19]
Ki [1]: > 0.1 µM | Ki [2]: ≥ 0.5 µM | MIC [3]: > 7 µg/mL | MIC [4]: 1 to 7 µg/mL (≈ 2.42 to 17 µM) | MIC [5]: > 7 µg/mL | MIC [6]: 1 to 7 µg/mL (≈ 2.42 to 17 µM)

CCNC(=O)Nc1nc2cc(N3CCN(C(C)=O)CC3)cc(-c3ncccn3)c2[nH]1 [Compound I-5]
Ki [1, 7]: < 0.05 µM | MIC [3]: > 7 µg/mL | MIC [4]: < 1 µg/mL | MIC [5]: > 7 µg/mL | MIC [6]: 1 to 7 µg/mL (≈ 2.45 to 17.1 µM)

CCNC(=O)Nc1nc2cc(C3CCN(Cc4ccccc4)C(=O)C3)cc(-n3cccn3)c2[nH]1 (centres unmarked) [Compound I-17]
Ki [1]: > 0.1 µM | Ki [2]: ≤ 0.25 µM | MIC [3]: 1 to 7 µg/mL (≈ 2.19 to 15.3 µM) | MIC [4]: < 1 µg/mL | MIC [5]: > 7 µg/mL | MIC [6]: 1 to 7 µg/mL (≈ 2.19 to 15.3 µM)

CCNC(=O)Nc1nc2cc(NCc3ccccn3)cc(-c3ncccn3)c2[nH]1 [Compound I-14]
Ki [1]: 0.05 to 0.1 µM | Ki [2]: ≥ 0.5 µM | MIC [3]: > 7 µg/mL | MIC [4]: < 1 µg/mL | MIC [5]: > 7 µg/mL | MIC [6]: 1 to 7 µg/mL (≈ 2.57 to 18 µM)

CCNC(=O)Nc1nc2cc(F)cc(-c3ncccn3)c2[nH]1 [Compound I-15]
Ki [1]: < 0.05 µM | Ki [2]: ≥ 0.5 µM | MIC [3]: > 7 µg/mL | MIC [4]: 1 to 7 µg/mL (≈ 3.33 to 23.3 µM) | MIC [5]: > 7 µg/mL | MIC [6]: 1 to 7 µg/mL (≈ 3.33 to 23.3 µM)

CCNC(=O)Nc1nc2cc(C(=O)OC)cc(-c3ncccc3F)c2[nH]1 [Compound I-7]
Ki [1, 7]: < 0.05 µM | MIC [3]: > 7 µg/mL | MIC [4]: 1 to 7 µg/mL (≈ 2.8 to 19.6 µM) | MIC [5]: > 7 µg/mL | MIC [6]: 1 to 7 µg/mL (≈ 2.8 to 19.6 µM)

CCNC(=O)Nc1nc2cc(N3CCCC3=O)cc(-c3ncccn3)c2[nH]1 [Compound I-6]
Ki [1, 7]: < 0.05 µM | MIC [3]: > 7 µg/mL | MIC [4]: < 1 µg/mL | MIC [5]: > 7 µg/mL | MIC [6]: 1 to 7 µg/mL (≈ 2.74 to 19.2 µM)

CCNC(=O)Nc1nc2cc(C#N)cc(-c3ncccc3F)c2[nH]1 [Compound I-4]
Ki [1, 7]: 0.05 to 0.1 µM | MIC [3]: > 7 µg/mL | MIC [4]: < 1 µg/mL | MIC [5]: > 7 µg/mL | MIC [6]: 1 to 7 µg/mL (≈ 3.08 to 21.6 µM)

CCNC(=O)Nc1nc2cc(C(=O)O)cc(-c3ncccc3F)c2[nH]1 [Compound I-2]
Ki [1, 7]: > 0.1 µM | MIC [3]: > 7 µg/mL | MIC [4]: > 7 µg/mL | MIC [5]: > 7 µg/mL | MIC [6]: > 7 µg/mL

CCNC(=O)Nc1nc2cc(C3=CC(=O)N(Cc4ccccc4)CC3)cc(-n3cccn3)c2[nH]1 [Compound I-18]
Ki [1]: < 0.05 µM | Ki [2]: ≤ 0.25 µM | MIC [3]: < 1 µg/mL | MIC [4]: < 1 µg/mL | MIC [5]: > 7 µg/mL | MIC [6]: < 1 µg/mL

CCNC(=O)Nc1nc2cc(C(C)CC(=O)NC)cc(-c3ncccc3F)c2[nH]1 (centres unmarked) [Compound I-9]
Ki [1]: > 0.1 µM | Ki [2]: ≥ 0.5 µM | MIC [3]: > 7 µg/mL | MIC [4]: 1 to 7 µg/mL (≈ 2.51 to 17.6 µM) | MIC [5]: > 7 µg/mL | MIC [6]: > 7 µg/mL

CCNC(=O)Nc1nc2cc(OC)cc(-n3cccn3)c2[nH]1 [Compound I-1]
Ki [1, 7]: 0.05 to 0.1 µM | MIC [3]: > 7 µg/mL | MIC [4]: 1 to 7 µg/mL (≈ 3.33 to 23.3 µM) | MIC [5]: > 7 µg/mL | MIC [6]: > 7 µg/mL

CCNC(=O)Nc1nc2cc(/C(C)=C/C(=O)NC)cc(-c3ncccc3F)c2[nH]1 [Compound I-10]
Ki [1]: < 0.05 µM | Ki [2]: ≤ 0.25 µM | MIC [3]: > 7 µg/mL | MIC [4]: < 1 µg/mL | MIC [5]: > 7 µg/mL | MIC [6]: < 1 µg/mL

CCNC(=O)Nc1nc2cc(C3CCN(C)C(=O)C3)cc(-c3ncccc3F)c2[nH]1 (centres unmarked) [Compound I-13]
Ki [1]: < 0.05 µM | Ki [2]: ≤ 0.25 µM | MIC [3]: 1 to 7 µg/mL (≈ 2.44 to 17.1 µM) | MIC [4]: < 1 µg/mL | MIC [5]: > 7 µg/mL | MIC [6]: < 1 µg/mL

CCNC(=O)Nc1nc2cc(C(=O)NC)cc(-c3ncccc3F)c2[nH]1 [Compound I-3]
Ki [1, 7]: < 0.05 µM | MIC [3]: > 7 µg/mL | MIC [4]: < 1 µg/mL | MIC [5]: > 7 µg/mL | MIC [6]: < 1 µg/mL

CCNC(=O)Nc1nc2cc(/C(C)=C/C(=O)N(C)C)cc(-c3ncccc3F)c2[nH]1 [Compound I-8]
Ki [1]: 0.05 to 0.1 µM | Ki [2]: ≤ 0.25 µM | MIC [3]: > 7 µg/mL | MIC [4]: < 1 µg/mL | MIC [5]: > 7 µg/mL | MIC [6]: 1 to 7 µg/mL (≈ 2.44 to 17.1 µM)
